Reference: ChEMBL document CHEMBL1201862, “PubChem BioAssay data set” (2004)
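Where inhibition never reached the appropriate level, the endpoint shown equals the highest concentration tested. Otherwise, values were interpolated linearly from a five-concentration, 48-hour dose response in 96-well plates. GI50: concentration for 50% inhibition of growth.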 Activity calls are given as the source filed them. Cut-off read from the data, not from the text of the source: active = GI50 up to about 1.1 µM and inactive = higher.

Assays:
Assay in all cases: inhibition of tumour cell growth, NCI panel, 48 h
[1] = tested on: M14
[2] = tested on: RPMI-8226
[3] = tested on: UACC-62
[4] = tested on: LXFL 529
[5] = tested on: SNB-19
[6] = tested on: HOP-62
[7] = tested on: TK-10
[8] = tested on: KM-20L2
[9] = tested on: COLO 205
[10] = tested on: CAKI-1
[11] = tested on: NCI-H23
[12] = tested on: HT-29
[13] = tested on: UO-31
[14] = tested on: A498
[15] = tested on: SF-295
[16] = tested on: HCT-15
[17] = tested on: EKVX

COc1cc2c(OC)cc1CSCc1sc(C)c(c1Br)CSC2
GI50 [1]: > 100 µM (inactive)
GI50 [2]: > 100 µM (inactive)
GI50 [3]: > 100 µM (inactive)
GI50 [4]: > 100 µM (inactive)
GI50 [5]: > 100 µM (inactive)
GI50 [6]: > 100 µM (inactive)
GI50 [7]: > 100 µM (inactive)
GI50 [8]: > 100 µM (inactive)
GI50 [9]: > 100 µM (inactive)
GI50 [10]: > 100 µM (inactive)
GI50 [11]: > 100 µM (inactive)
GI50 [12]: > 100 µM (inactive)
GI50 [13]: > 100 µM (inactive)
GI50 [14]: > 100 µM (inactive)
GI50 [15]: > 100 µM (inactive)
GI50 [16]: > 100 µM
GI50 [17]: > 100 µM (inactive)

NCCCNCCSSCCCCS(=O)O
GI50 [1]: 18.5 µM (inactive)
GI50 [2]: 26.1 µM (inactive)
GI50 [3]: 15.7 µM (inactive)
GI50 [4]: 23 µM (inactive)
GI50 [5]: > 100 µM (inactive)
GI50 [6]: > 100 µM (inactive)
GI50 [7]: > 100 µM (inactive)
GI50 [8]: > 100 µM (inactive)
GI50 [9]: 16.4 µM (inactive)
GI50 [10]: 75.5 µM (inactive)
GI50 [11]: 17.7 µM (inactive)
GI50 [12]: 39.8 µM (inactive)
GI50 [13]: 30.6 µM (inactive)
GI50 [14]: > 100 µM (inactive)
GI50 [15]: 36.2 µM (inactive)
GI50 [16]: > 100 µM
GI50 [17]: 85.7 µM (inactive)

C=CCN(N=O)C(=O)NCCCCC(NC(C)=O)C(=O)NCc1ccccc1 (stereo not given)
GI50 [1]: > 100 µM (inactive)
GI50 [2]: > 100 µM (inactive)
GI50 [3]: > 100 µM (inactive)
GI50 [4]: > 100 µM (inactive)
GI50 [5]: > 100 µM (inactive)
GI50 [6]: > 100 µM (inactive)
GI50 [7]: > 100 µM (inactive)
GI50 [8]: > 100 µM (inactive)
GI50 [9]: > 100 µM (inactive)
GI50 [10]: > 100 µM (inactive)
GI50 [11]: > 100 µM (inactive)
GI50 [12]: > 100 µM (inactive)
GI50 [13]: > 100 µM (inactive)
GI50 [14]: > 100 µM (inactive)
GI50 [15]: > 100 µM (inactive)
GI50 [16]: > 100 µM
GI50 [17]: > 100 µM (inactive)

CC(=O)N1C/C(=C\c2ccc(N(C)C)cc2)C(=O)/C(=C/c2ccc(N(C)C)cc2)C1
GI50 [1]: 40.1 µM (inactive)
GI50 [2]: > 100 µM (inactive)
GI50 [3]: 30.1 µM (inactive)
GI50 [4]: 64 µM (inactive)
GI50 [5]: 24.8 µM (inactive)
GI50 [6]: > 100 µM (inactive)
GI50 [7]: 75.7 µM (inactive)
GI50 [8]: 28.7 µM (inactive)
GI50 [9]: > 10 µM (inactive)
GI50 [10]: 41.1 µM (inactive)
GI50 [11]: > 100 µM (inactive)
GI50 [12]: 36.6 µM (inactive)
GI50 [13]: > 100 µM (inactive)
GI50 [14]: 33.5 µM (inactive)
GI50 [15]: 52.6 µM (inactive)
GI50 [16]: > 100 µM

Cn1cc(C(=O)NCCC(=N)N)cc1NC(=O)C1=[N+](C)C=C(NC(=O)c2cccc(C(=O)NC3=CC(C(=O)Nc4cc(C(=O)NCCC(=N)N)cn4C)=[N+](C)C3)c2)C1
GI50 [1]: > 100 µM (inactive)
GI50 [2]: > 100 µM (inactive)
GI50 [3]: 37.8 µM (inactive)
GI50 [4]: > 100 µM (inactive)
GI50 [5]: > 100 µM (inactive)
GI50 [6]: > 100 µM (inactive)
GI50 [7]: > 100 µM (inactive)
GI50 [8]: > 100 µM (inactive)
GI50 [9]: 50.7 µM (inactive)
GI50 [10]: > 100 µM (inactive)
GI50 [11]: > 100 µM (inactive)
GI50 [12]: > 100 µM (inactive)
GI50 [13]: > 100 µM (inactive)
GI50 [14]: > 100 µM (inactive)
GI50 [15]: > 100 µM (inactive)
GI50 [16]: > 100 µM
GI50 [17]: > 100 µM (inactive)

CCCOC(=O)C1C(c2ccc(OC)cc2)NC(c2ccc(OC)cc2)C(C(=O)OCCC)S1(=O)=O (stereo not given)
GI50 [1]: > 10 µM (inactive)
GI50 [2]: > 10 µM (inactive)
GI50 [3]: > 10 µM (inactive)
GI50 [4]: > 10 µM (inactive)
GI50 [5]: > 10 µM (inactive)
GI50 [6]: > 10 µM (inactive)
GI50 [7]: > 10 µM (inactive)
GI50 [8]: > 10 µM (inactive)
GI50 [9]: > 10 µM (inactive)
GI50 [10]: > 10 µM (inactive)
GI50 [11]: > 10 µM (inactive)
GI50 [12]: > 10 µM (inactive)
GI50 [13]: > 10 µM (inactive)
GI50 [14]: 85.3 µM (inactive)
GI50 [15]: > 10 µM (inactive)
GI50 [16]: > 10 µM
GI50 [17]: > 10 µM (inactive)

c1ccc2c(c1)n1nnnc1c1nnnn21
GI50 [1]: > 100 µM (inactive)
GI50 [2]: > 100 µM (inactive)
GI50 [3]: > 100 µM (inactive)
GI50 [4]: > 100 µM (inactive)
GI50 [5]: > 100 µM (inactive)
GI50 [6]: > 100 µM (inactive)
GI50 [7]: > 100 µM (inactive)
GI50 [8]: 93.8 µM (inactive)
GI50 [9]: > 100 µM (inactive)
GI50 [10]: > 100 µM (inactive)
GI50 [11]: > 100 µM (inactive)
GI50 [12]: > 100 µM (inactive)
GI50 [13]: > 100 µM (inactive)
GI50 [14]: > 100 µM (inactive)
GI50 [15]: 77.8 µM (inactive)
GI50 [16]: > 100 µM
GI50 [17]: > 100 µM (inactive)

CC(=O)OC1COC(N2CCc3cc([N+](=O)[O-])ccc32)C(OC(C)=O)C1OC(C)=O (stereo not given)
GI50 [1]: > 100 µM (inactive)
GI50 [2]: > 100 µM (inactive)
GI50 [3]: > 100 µM (inactive)
GI50 [4]: > 100 µM (inactive)
GI50 [5]: > 100 µM (inactive)
GI50 [6]: > 100 µM (inactive)
GI50 [7]: > 100 µM (inactive)
GI50 [8]: > 100 µM (inactive)
GI50 [9]: > 100 µM (inactive)
GI50 [10]: > 100 µM (inactive)
GI50 [11]: > 100 µM (inactive)
GI50 [12]: > 100 µM (inactive)
GI50 [13]: > 100 µM (inactive)
GI50 [14]: 7.23 µM (inactive)
GI50 [15]: > 100 µM (inactive)
GI50 [16]: > 100 µM
GI50 [17]: > 100 µM (inactive)
